How the values were obtained:
[1] = tested on: live brain slices (nucleus accumbens); assay: optical fiber sensor in live brain slices, endogenous release of serotonin upon MDMA stimulation; format: cell-based, mouse; design: dose or concentration left out as unconfirmed; settings: following infusion of MDMA for 10 minutes; 532 nm excitation; NAc
Text: According to some embodiments, to measure endogenous release of DA and 5-HT upon drug (MDMA) stimulation with the optical biosensor in live brain slices, a rig system and a brain slice recording chamber are installed in a lab with all the necessary components, including: a gravity-perfusion system alimented by peristatic pump, temperature controller, oxygen lines, microscope, camera and micro-stage. It was noted that black curtains covering the entire rig system were necessary to minimize the background and fluctuations from room-light.
Initially, the optical fiber was successfully inserted in a brain slice without compromising or breaking the micron-size tip of the optical fiber. However, due to mechanical contact, the fluorescence signal was mostly lost during the insertion process. Subsequently, the fiber was protected by a capillary tube from mechanical breakage during the transfer processes onto the rig holder and bath. […]
After confirming the sensitivity, robustness, and specificity of the aptamer sensor in the rig system, test measurements were performed with live brain slices. […] After approximately 10 minutes of baseline measurements (aCSF) to determine the stability of the fluorescence signal in the brain environment over time and estimate the photobleaching rate, drug infusion at […] was started for 10 minutes. […]

serotonin aptamers [2] = assay: specificity test of the aptamers: MDMA spiked in control sample in the absence of brain slice (rig bath); format: binding; settings: excess of MDMA (30 μM), no brain slice, oxygenated aCSF 37° C., 3 ml/min
Procedure: The stability of the fluorescence signal over time is characterized in a bath system (rig) under the appropriate conditions favorable for live brain slice measurements. This includes keeping the temperature of the bath at 37° C., with oxygenated artificial CSF (aCSF) flown in the chamber at a rate of 3 ml/min. A stable fluorescence signal (counts) was observed over tens of minutes under continuous laser excitation, which confirmed the robustness of the aptamers, fluorophores and the surface under such conditions. To test the specificity of the aptamers, an excess of MDMA (30 μM) was spiked in a control sample in the absence of brain slice.

serotonin aptamers [3] = assay: real-time measurement with one-color optical biosensor system, fiber-tethered signal-off serotonin aptamer switch; format: binding; settings: specificity of 5-HT signal-off aptamer optical probe towards other molecules
Text: In some embodiments, the optical biosensor system was used to measure other molecules, such as dopamine (DA) and serotonin ([…]). The aptamers for DA and 5-TH are converted into aptamer-switches. (See, e.g., Nakatsuka et al., Aptamer-field-effect Transistors Overcome Debye Length Limitations for Small-molecule Sensing, Science 362: 319-324 (2018).) Higher sensitivity and better photostability were achieved through improvements in detector alignment.
To evaluate the performance of the optical biosensor system in a biological matrix, spiked concentration of 5-HT and DA in an artificial cerebrospinal fluid (aCSF) or a cerebrospinal fluid (CSF), and in brain slices mediums were measured using a one-color optical biosensor system.
The optical biosensor system 2400 includes a laser source 2410, an optical beam splitter 2420, and a detector 2430. The optical biosensor system 2400 may include an optional battery for providing power to the laser source 2410 and the detector 2430. […]
Molecular switches (not shown) are attached to the second end 2466 of the optical waveguide 2462. […] When target molecules, such as dopamine or serotonin, bind to the molecular switches, the molecular switches may emit fluorescence light. The fluorescence light may have a second wavelength that is longer than the first wavelength of the excitation light. The emitted fluorescence light may be coupled back into the optical waveguide 2462 through the second end 2466 and be propagated through the optical waveguide 2462 to be emitted from the first end 2464.
The fluorescence light emitted from the […] of the optical waveguide 2462 may be collimated by the lens 2440 and incident on the optical beam splitter 2420. The optical beam splitter 2420 is configured to transmit the fluorescence light. In some embodiments, the optical beam splitter 2420 may be a dichroic beam splitter configured to have a high reflectance value for the first wavelength of the excitation light, and a high transmittance value for the second wavelength of the fluorescence light. […]

SMILES | fluorescence intensity, red channel (Cy5) and green channel (Cy3) [1] | change in the fluorescence signal (serotonin aptamers [2]) | sensor responses (fluorescence signal) (serotonin aptamers [3])
CNC(C)Cc1ccc2c(c1)OCO2 (centres unmarked) [MDMA] | clear drop in the fluorescence intensity | Minimal change | 
O=C(O)Cc1c[nH]c2ccc(O)cc12 [5-hydroxyindoleacetic acid] |  |  | negligible
NCCc1ccc(O)c(O)c1 [dopamine] |  |  | negligible
CNC[C@H](O)c1ccc(O)c(O)c1 [epinephrine] |  |  | negligible

— US12710369B2, “Optical real-time biosensor” (CZ Biohub SF, LLC, priority 2018, dated 2026)
